Results as given in the supplement of paper PMC10307832.

How the values were obtained:
Test in all cases: relative viability (nuclei count vs DMSO), 5 days (fraction); higher = more cells survive
Trametinib + Linsitinib = compound: CC(=O)Nc1cccc(-n2c(=O)n(C3CC3)c(=O)c3c(Nc4ccc(I)cc4F)n(C)c(=O)c(C)c32)c1 [Trametinib] + C[C@]1(O)C[C@@H](c2nc(-c3ccc4ccc(-c5ccccc5)nc4c3)c3c(N)nccn32)C1 [Linsitinib] (partner 1 µM)
How it was run: (§1)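 Lung cancer cell lines in 1536-well plates were dosed by pin tool the day after seeding, either with one drug alone or with a fixed anchor-drug dose plus five library-drug doses (not always all listed) in √10 steps. After 5 days, cells were fixed and their nuclei stained in one step (final 0.05% Triton X-100, 1% formaldehyde, 1 ug/ml Hoechst), then counted on 4× images. Relative viability is the nuclei count in treated wells divided by that in vehicle wells. Values are medians of duplicate plates.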

Trametinib + Alpelisib = compound: CC(=O)Nc1cccc(-n2c(=O)n(C3CC3)c(=O)c3c(Nc4ccc(I)cc4F)n(C)c(=O)c(C)c32)c1 [Trametinib] + Cc1nc(NC(=O)N2CCC[C@H]2C(N)=O)sc1-c1ccnc(C(C)(C)C(F)(F)F)c1 [Alpelisib] (partner 2 µM)
How it was run: as §1

Trametinib + Pictilisib = compound: CC(=O)Nc1cccc(-n2c(=O)n(C3CC3)c(=O)c3c(Nc4ccc(I)cc4F)n(C)c(=O)c(C)c32)c1 [Trametinib] + CS(=O)(=O)N1CCN(Cc2cc3nc(-c4cccc5[nH]ncc45)nc(N4CCOCC4)c3s2)CC1 [Pictilisib] (partner 1 µM)
How it was run: as §1

Trametinib + Dasatinib = compound: CC(=O)Nc1cccc(-n2c(=O)n(C3CC3)c(=O)c3c(Nc4ccc(I)cc4F)n(C)c(=O)c(C)c32)c1 [Trametinib] + Cc1nc(Nc2ncc(C(=O)Nc3c(C)cccc3Cl)s2)cc(N2CCN(CCO)CC2)n1 [Dasatinib] (partner 0.075 µM)
How it was run: as §1

Cell Line	relative viability (Trametinib + Linsitinib; first compound 0.0025 µM)	relative viability (Trametinib + Linsitinib; first compound 0.007906 µM)	relative viability (Trametinib + Linsitinib; first compound 0.025 µM)	relative viability (Trametinib + Linsitinib; first compound 0.07906 µM)	relative viability (Trametinib + Linsitinib; first compound 0.25 µM)	relative viability (Trametinib + Alpelisib; first compound 0.0025 µM)	relative viability (Trametinib + Alpelisib; first compound 0.007906 µM)	relative viability (Trametinib + Alpelisib; first compound 0.025 µM)	relative viability (Trametinib + Alpelisib; first compound 0.07906 µM)	relative viability (Trametinib + Alpelisib; first compound 0.25 µM)	relative viability (Trametinib + Pictilisib; first compound 0.0025 µM)	relative viability (Trametinib + Pictilisib; first compound 0.007906 µM)	relative viability (Trametinib + Pictilisib; first compound 0.025 µM)	relative viability (Trametinib + Pictilisib; first compound 0.07906 µM)	relative viability (Trametinib + Pictilisib; first compound 0.25 µM)	relative viability (Trametinib + Dasatinib; first compound 0.0025 µM)	relative viability (Trametinib + Dasatinib; first compound 0.007906 µM)	relative viability (Trametinib + Dasatinib; first compound 0.025 µM)	relative viability (Trametinib + Dasatinib; first compound 0.07906 µM)	relative viability (Trametinib + Dasatinib; first compound 0.25 µM)
NCI-H1755	0.847	0.82	0.764	0.847	0.801	0.798	0.83	0.799	0.802	0.753	0.396	0.348	0.248	0.331	0.228	0.409	0.433	0.492	0.427	0.322
HCC-15	0.694	0.447	0.294	0.239	0.186	0.645	0.436	0.275	0.204	0.148	0.596	0.232	0.175	0.158	0.182	0.287	0.214	0.163	0.135	0.121
NCI-H2087	0.718	0.416	0.377	0.311	0.315	0.705	0.442	0.371	0.28	0.266	0.846	0.344	0.26	0.237	0.382	0.366	0.236	0.117	0.127	0.156
LCLC-103H	0.968	0.897	0.746	0.904	0.933	0.974	0.875	0.665	0.81	0.624	0.641	0.547	0.451	0.458	0.406	0.498	0.512	0.429	0.402	0.446
LK-2	0.553	0.44	0.604	0.304	0.469	1	0.862	0.958	1.28	0.303	0.457	0.571	0.54	0.575	0.294	0.251	0.272	0.239	0.212	0.156
HCC-78	0.543	0.323	0.314	0.354	0.36	0.304	0.242	0.226	0.205	0.224	0.205	0.154	0.185	0.152	0.212	0.359	0.265	0.23	0.294	0.25
NCI-H1666	0.56	0.524	0.426	0.571	0.388	0.697	0.501	0.465	0.331	0.306	0.267	0.371	0.276	0.255	0.244	0.812	0.841	0.755	0.666	0.506
EKVX	0.875	0.757	0.767	0.632	0.282	0.832	0.638	0.629	0.444	0.343	0.363	0.318	0.228	0.214	0.193	0.398	0.492	0.31	0.226	0.221
COR-L 105	0.788	0.754	0.49	0.394	0.367	0.808	1.03	0.352	0.419	0.389	0.311	0.343	0.303	0.31	0.315	0.319	0.289	0.194	0.153	0.17
NCI-H322M	0.896	0.664	0.601	0.519	0.459	0.78	0.59	0.555	0.455	0.316	0.522	0.486	0.35	0.344	0.336	0.239	0.239	0.247	0.266	0.284
HARA	0.757	0.736	0.673	0.535	0.237	0.758	0.657	0.44	0.498	0.241	0.384	0.342	0.131	0.207	0.213	0.225	0.275	0.367	0.18	0.185
NCI-H2023	0.549	0.47	0.45	0.424	0.217	0.38	0.486	0.315	0.352	0.288	0.213	0.141	0.137	0.175	0.143	0.484	0.485	0.515	0.34	0.221
NCI-H1437	0.996	0.412	0.294	0.209	0.176	0.908	0.342	0.22	0.219	0.208	0.151	0.144	0.113	0.129	0.148	0.374	0.207	0.162	0.118	0.217
BEN	0.81	0.762	–	0.687	0.882	0.951	0.939	–	0.763	0.888	0.487	0.472	–	0.419	0.426	0.304	0.296	0.228	0.269	0.319
LXF-289	0.878	0.818	0.698	0.628	0.563	0.961	0.894	0.758	0.672	0.495	0.674	0.618	0.424	0.388	0.264	0.192	0.305	0.299	0.28	0.0945
NCI-H358	0.587	0.438	0.399	0.332	0.28	0.563	0.373	0.277	0.269	0.248	0.311	0.328	0.233	0.22	0.363	0.137	0.117	0.103	0.11	0.143

Cell Line	relative viability (Trametinib + Linsitinib; first compound 0.0025 µM)	relative viability (Trametinib + Linsitinib; first compound 0.007906 µM)	relative viability (Trametinib + Linsitinib; first compound 0.025 µM)	relative viability (Trametinib + Linsitinib; first compound 0.07906 µM)	relative viability (Trametinib + Linsitinib; first compound 0.25 µM)	relative viability (Trametinib + Alpelisib; first compound 0.0025 µM)	relative viability (Trametinib + Alpelisib; first compound 0.007906 µM)	relative viability (Trametinib + Alpelisib; first compound 0.025 µM)	relative viability (Trametinib + Alpelisib; first compound 0.07906 µM)	relative viability (Trametinib + Alpelisib; first compound 0.25 µM)	relative viability (Trametinib + Pictilisib; first compound 0.0025 µM)	relative viability (Trametinib + Pictilisib; first compound 0.007906 µM)	relative viability (Trametinib + Pictilisib; first compound 0.025 µM)	relative viability (Trametinib + Pictilisib; first compound 0.07906 µM)	relative viability (Trametinib + Pictilisib; first compound 0.25 µM)	relative viability (Trametinib + Dasatinib; first compound 0.0025 µM)	relative viability (Trametinib + Dasatinib; first compound 0.007906 µM)	relative viability (Trametinib + Dasatinib; first compound 0.025 µM)	relative viability (Trametinib + Dasatinib; first compound 0.07906 µM)	relative viability (Trametinib + Dasatinib; first compound 0.25 µM)
NCI-H1993	0.774	0.752	0.719	0.723	0.745	0.649	0.722	0.656	0.699	0.649	0.864	0.913	0.792	0.806	0.897	0.51	0.521	0.505	0.521	0.551
NCI-H727	0.21	0.164	0.104	0.144	0.155	0.312	0.211	0.227	0.172	0.183	0.333	0.207	0.176	0.149	0.25	0.31	0.212	0.347	0.196	0.244
LOU-NH91	0.864	0.801	0.771	0.735	0.526	0.674	0.601	0.619	0.545	0.4	0.469	0.497	0.479	0.45	0.353	0.528	0.498	0.468	0.426	0.296
NCI-H1975	0.93	0.897	0.603	0.384	0.38	0.547	0.415	0.301	0.223	0.268	0.252	0.199	0.137	0.162	0.179	0.28	0.218	0.15	0.172	0.123
PC-3 [JPC-3]	0.98	0.854	0.854	0.797	0.624	0.998	0.968	0.864	0.806	0.511	0.765	0.474	0.484	0.438	0.44	1.06	0.927	0.848	0.823	0.743
NCI-H2126	0.617	0.613	0.422	0.546	0.454	0.706	0.608	0.447	0.527	0.45	0.456	0.413	0.362	0.372	0.383	0.452	0.44	0.395	0.412	0.445
LU99A	0.593	0.522	0.441	0.47	0.291	0.571	0.456	0.444	0.262	0.172	0.279	0.318	0.217	0.197	0.197	0.529	0.535	0.376	0.363	0.317
NCI-H23	0.438	0.356	0.277	0.313	0.226	0.635	0.509	0.264	0.349	0.208	0.348	0.357	0.217	0.27	0.189	0.544	0.74	0.293	0.231	0.172
PC-14	0.996	0.89	0.787	0.59	0.434	0.994	0.892	0.949	0.654	0.46	0.667	0.546	0.24	0.141	0.107	0.265	0.234	0.266	0.13	0.0632
A-427	1.11	1.14	0.631	0.825	0.432	0.91	1.02	0.437	0.607	0.269	0.632	0.426	0.2	0.184	0.164	0.75	0.397	0.178	0.262	0.171
NCI-H596	1.04	0.851	0.769	0.774	0.76	0.34	0.422	0.311	0.371	0.342	0.367	0.316	0.338	0.314	0.33	0.533	0.535	0.495	0.487	0.303
RERF-LC-KJ	0.862	0.792	0.751	0.791	0.793	0.775	0.759	0.645	0.657	0.472	0.417	0.449	0.503	0.494	0.458	0.7	0.741	0.794	0.731	0.554
NCI-H647	1.07	0.803	0.835	0.933	0.58	1.14	0.956	0.768	0.638	0.199	0.348	0.301	0.235	0.206	0.127	0.169	0.22	0.184	0.107	0.0699
NCI-H1734	0.845	0.739	–	0.788	0.613	0.627	0.712	–	0.631	0.444	0.439	0.448	–	0.362	0.299	0.54	0.592	0.399	0.56	0.387
SK-LU-1	1.18	0.965	0.888	0.778	0.443	0.966	0.841	0.7	0.361	0.226	0.535	0.399	0.251	0.278	0.256	0.192	0.183	0.148	0.15	0.159
NCI-H1563	1.22	1.08	1.1	1.12	0.808	0.94	0.985	0.992	0.968	0.628	0.624	0.72	0.652	0.572	0.536	0.466	0.509	0.467	0.438	0.464
